From publication PMC9738727, “Purification and Characterization of Novel Anti-MRSA Peptides Produced by Brevibacillus sp. SPR-20” (Molecules, 2022)
In brackets after ≈: the same amount, converted by molar mass. Several values for one entry are separate records, joined by “and”; a condition that tells them apart may be missing. Identical values can stand only once. Like-named read-outs stand apart in the source and are kept apart here. Ends that are not written are not given here.

What was measured:
[1] = system: S. aureus TISTR 517; assay: microbe, parasite or virus in culture; assay type: cell-based, Staphylococcus aureus
Procedure: (§1) The MIC and MBC of the purified peptides from SPR-20 were determined by broth microdilution assay following a standard guideline. S. aureus TISTR 517 and MRSA isolate 142, 1096, and 2468 as bacterial strains were cultured in MH agar at 37 °C for 18 h. […] The cells were then diluted to 5 × 10^6 CFU/mL using cation-adjusted Mueller Hinton broth (CAMHB). The diluted cell suspension (10 μL) was transferred to each well of a 96-well plate. The purified peptide in the total volume of 100 µL was added to each well to obtain the final concentrations between 0.5 and 64 µg/mL. The standard antibiotics (vancomycin and cefoxitin) (Sigma-Aldrich Co., St. Louis, MO, USA) and antibiotic-free samples were the positive and negative controls, respectively. CAMHB without tested bacteria was used as a blank. The 96-well plates were incubated at 37 °C for 24 h, and the experiment was performed in triplicate for each strain. […] Subsequently, 100 µL of each dilution was spread on MH agar and then incubated at 37 °C for 24 h.

[2] = system: MRSA isolate 2468; assay: microbe, parasite or virus in culture; assay type: cell-based, Staphylococcus aureus
Procedure: as §1

[3] = system: MRSA isolate 1096; assay: microbe, parasite or virus in culture; assay type: cell-based, Staphylococcus aureus
Procedure: as §1

[4] = system: S. aureus TISTR 517 and MRSA strains; assay: microbe, parasite or virus in culture; assay type: cell-based, Staphylococcus aureus; details: Staphylococcus aureus
Procedure: as §1

[5] = system: MRSA isolate 142; assay: microbe, parasite or virus in culture; assay type: cell-based, Staphylococcus aureus
Procedure: as §1

[6] = system: S. aureus TISTR 517; assay: microbe, parasite or virus in culture; assay type: cell-based, Staphylococcus aureus; details: Staphylococcus aureus, TISTR517, 18 h, read-out: Corrected Zone of Inhibition
Procedure: (§2) The antimicrobial activity was measured by an agar well diffusion test with some modified methods. In brief, single colonies of the tested strains were suspended in 0.85% NaCl, and then the OD at 625 nm was adjusted to 0.1. The cell suspensions were spread on MH agar, and the tested samples (100 μL) were introduced into each well before incubation at 37 °C for 24 h. Each experiment was performed in three independent replicates, and the inhibition zone was measured and expressed as mean ± SD.
(§3) The agar well diffusion test was performed in triplicate for potency determination, using S. aureus TISTR 517 and MRSA isolate 2468 as the tested bacteria. […] The remaining standard and sample solutions were transferred to the other 3 wells. The plates were incubated at 37 °C for 18 h.

[7] = system: MRSA isolate 2468; assay: microbe, parasite or virus in culture; assay type: cell-based, Staphylococcus aureus; details: Staphylococcus aureus, 18 h, read-out: Corrected Zone of Inhibition
Procedure: as §2, §3

[8] = cited from earlier work
Procedure: With the highest activity, P1 was selected for further study on its stability and mechanism of action. P1 was thermostable as it maintained nearly all activity after exposure to 100 °C or autoclave conditions. The short-chain peptide with substantial β-strand and disordered structures was an important characteristic of P1. This peptide might be refolded to active conformation after heat treatment that conferred good thermal stability. Similarly, acidocin LCHV (11 residues) produced by Lactobacillus acidophilus n.v. Er 317/402 Narine was stable at 130 °C for 90 min [27]. […] The enzymatic stability of P1 was caused by the absence of aromatic amino acids, which are the specific cleavage sites of proteinase K and α-chymotrypsin. The presence of one lysine at the core sequence of P1 might lessen the sensitivity of trypsin [29].

[9] = Staphylococcus aureus, broth microdilution, CAMHB, 37 °C, 24 h, triplicate, read-out: MIC
[10] = Staphylococcus aureus, TISTR517, 24 h

Row | Compound | MBC ([1]; TISTR 517, 24 h) [µg/mL] | MIC ([1]; TISTR 517, 24 h) [µg/mL] | MBC ([2]; isolate 2468, 24 h) [µg/mL] | MIC ([2]; isolate 2468, 24 h) [µg/mL] | MBC ([3]; isolate 1096, 24 h) [µg/mL] | MIC ([3]; isolate 1096, 24 h) [µg/mL] | MBC ([5]; isolate 142, 24 h) [µg/mL] | MIC ([5]; isolate 142, 24 h) [µg/mL] | other results
1 | CO[C@@]1(NC(=O)Cc2cccs2)C(=O)N2C(C(=O)O)=C(COC(N)=O)CS[C@@H]21 [Cefoxitin, cefoxitin, reference compound] | – | – | – | – | – | – | – | – | MIC ([1]; Staphylococcus aureus, TISTR517, broth microdilution, CAMHB, 37 °C, 24 h, triplicate, read-out: MIC): 2 µg/mL (≈ 4.68 µM); MBC ([1]; Staphylococcus aureus, TISTR517, dilutions spread on MH agar, 37 °C, 24 h, no colony, read-out: MBC): 2 µg/mL (≈ 4.68 µM); MIC ([1]; broth microdilution, CAMHB, 37 °C, 24 h, triplicate): 2 µg/mL (≈ 4.68 µM); MIC [2, 9]: > 64 µg/mL; MIC [3, 9]: > 64 µg/mL; MIC ([4]; MRSA strains only, read-out: MIC): > 64 µg/mL; MIC [5, 9]: > 64 µg/mL
2 | CN[C@H](CC(C)C)C(=O)N[C@H]1C(=O)N[C@@H](CC(N)=O)C(=O)N[C@H]2C(=O)N[C@H]3C(=O)N[C@H](C(=O)N[C@H](C(=O)O)c4cc(O)cc(O)c4-c4cc3ccc4O)[C@H](O)c3ccc(c(Cl)c3)Oc3cc2cc(c3O[C@@H]2O[C@H](CO)[C@@H](O)[C@H](O)[C@H]2O[C@H]2C[C@](C)(N)[C@H](O)[C@H](C)O2)Oc2ccc(cc2Cl)[C@H]1O [Vancomycin, vancomycin] | – | – | – | – | – | – | – | – | zone of inhibition at 50 µg/mL [6]: 18.8 ± 0.61 mm; zone of inhibition at 75 µg/mL [6]: 19.5 ± 0.52 mm; zone of inhibition at 100 µg/mL [6]: 20.3 ± 0.41 mm; zone of inhibition at 125 µg/mL [6]: 21.1 ± 0.41 mm; zone of inhibition at 150 µg/mL [6]: 21.3 ± 0.36 mm; zone of inhibition at 50 µg/mL [7]: 20.1 ± 0.29 mm; zone of inhibition at 75 µg/mL [7]: 21.2 ± 0.76 mm; zone of inhibition at 100 µg/mL [7]: 22 ± 0.57 mm; zone of inhibition at 125 µg/mL [7]: 22.7 ± 0.61 mm; zone of inhibition at 150 µg/mL [7]: 23.36 ± 0.21 mm; MBC [1, 10]: 2 µg/mL (≈ 1.38 µM); MIC [1, 10]: 2 µg/mL (≈ 1.38 µM); MBC ([2]; Staphylococcus aureus, 24 h): 2 µg/mL (≈ 1.38 µM); MIC ([2]; Staphylococcus aureus, 24 h): 2 µg/mL (≈ 1.38 µM); MBC ([3]; Staphylococcus aureus, 24 h): 2 µg/mL (≈ 1.38 µM); MIC ([3]; Staphylococcus aureus, 24 h): 2 µg/mL (≈ 1.38 µM); MIC [4]: 2 µg/mL and 1.38 µM; MBC ([5]; Staphylococcus aureus, 24 h): 2 µg/mL (≈ 1.38 µM); MIC ([5]; Staphylococcus aureus, 24 h): 2 µg/mL (≈ 1.38 µM)
3 | NVGVLNPPPLV [Acidocin LCHV, antimicrobial peptide produced by Lactobacillus acidophilus n.v; Er 317/402 Narine] | – | – | – | – | – | – | – | – | thermal stability ([8]; 130 °C for 90 min): stable; effect of trypsin, pepsin, and proteinase K on activity ([8]; according to a previous study): decreased the activity
4 | VVLNLLVKVLKYGK [Peptide P3] | 4 | 4 | 8 | 4 | 8 | 4 | 8 | 4 | –
5 | VVLNLVVKLLKYAK [Peptide P5] | 32 | 32 | 32 | 32 | 32 | 32 | 32 | 32 | –
6 | VVMNLLVKVLKYVV [Peptide P2] | 16 | 8 | 64 | 8 | 64 | 8 | 64 | 8 | –
7 | VVVNLLVKVLKYAK [Peptide P4] | 8 | 8 | 16 | 8 | 16 | 8 | 16 | 8 | –
8 | XVXVVVKVLKYLX [Brevilaterin V, antimicrobial peptide from Brevibacillus laterosporus S62-9] | – | – | – | – | – | – | – | – | initial activity retained after heating ([8]; 100 °C for 2 h): 99%; remaining activity with pepsin, trypsin, and proteinase K [8]: more than 97%
